These results are taken from patent US20060069110A1, “Substituted heterocyclic compounds and methods of use” (priority 2004, published 2006).

Molecules are shown by their SMILES. pIC50: −log10 of the molar value.

For this assay, the system named is THP1 cells (LPS induced TNF release). The assay is described as follows: Lipopolysaccharide-Activated THP1 Cell TNF Production Assay. Type of assay: cell-based. As to conditions: Homo sapiens, THP-1; THP1 cells, bacterial LPS, secreted TNF-α after 3 h at 37° C.; read-out: IC50 values in the THP1 cell assay (LPS induced TNF release). In outline:
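THP1 cells at 1E6/mL were treated with 3-fold serial compound dilutions and LPS (1 μg/mL stock) for 3 h at 37 °C. Secreted TNF-α was quantified by electrochemiluminescent sandwich immunoassay. Percent of DMSO control versus concentration was fitted to a 4-parameter equation.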

With `CC(Cc1cccc(CO)c1)Nc1nccc(N(C)c2cc(Cl)nc(-c3ccccc3)c2)n1` (stereo not shown) [Example 163, (3-(2-(4-((2-Chloro-6-phenylpyridin-4-yl)(methyl)amino)pyrimidin-2-ylamino)-propyl)phenyl)methanol], the pIC50 (usually the negative decadic logarithm of the IC50, by convention in mol/L) was not below 4.70.
The value for `CC(Cc1cccc(CN)c1)Nc1nccc(N(C)c2cc(Cl)nc(-c3ccccc3)c2)n1` (stereo not shown) [Example 164, N^2-(1-(3-(Aminomethyl)phenyl)propan-2-yl)-N^4-(2-chloro-6-phenylpyridin-4-yl)-N4-methylpyrimidine-2,4-diamine] was not below 4.70; that for `CN(c1c[nH]c(=O)c(-c2ccccc2)c1)c1ccnc(NCCc2ccccc2)n1` [Example 166, 5-(Methyl(2-(phenethylamino)pyrimidin-4-yl)amino)-3-phenylpyridin-2(1H)-one] was not below 4.70; that for `CC(=O)N1CCC(Nc2nccc(N(C)c3c[nH]c(=O)c(-c4ccccc4)c3)n2)CC1` [Example 167, 5-((2-(1-Acetylpiperidin-4-ylamino)pyrimidin-4-yl)(methyl)amino)-3-phenyl-pyridin-2(1H)-one] was not below 4.70.
The value for `C[C@@H](Cc1cccc(CN)c1)Nc1nccc(N(C)c2c[nH]c(=O)c(-c3ccccc3)c2)n1` [Example 168, (S)-5-((2-(1-(3-(Aminomethyl)phenyl)propan-2-ylamino)pyrimidin-4-yl)(methyl)-amino)-3-phenylpyridin-2(1H)-one] was not below 4.70; that for `C[C@@H](Cc1cccc(CN)c1)Nc1nccc(N(C)c2c[nH]c(=O)c(-c3ccccc3F)c2)n1` [Example 169] was not below 4.70.
With `C[C@H](N)c1cccc(C[C@H](C)Nc2nccc(N(C)c3c[nH]c(=O)c(-c4ccccc4)c3)n2)c1` [Example 170, 5-((2-((S)-1-(3-((S)-1-Aminoethyl)phenyl)propan-2-ylamino)pyrimidin-4-yl)-(methyl)amino)-3-phenylpyridin-2(1H)-one] the figure was not below 4.70; with `CC(Cc1cccc(CN)c1)Nc1nccc(N(C)c2c[nH]c(=O)c(-c3ccccc3)c2)n1` (stereo not shown) [Example 171, 5-((2-(1-(3-(Aminomethyl)phenyl)propan-2-ylamino)pyrimidin-4-yl)(methyl)-amino)-3-phenylpyridin-2(1H)-one], not below 4.70.
On to `COc1ncc(N(C)c2ccnc(NCCc3ccccc3)n2)cc1-c1ccccc1` [Example 172, N^4-(6-Methoxy-5-phenylpyridin-3-yl)-N^4-methyl-N^2-phenethylpyrimidine-2,4-diamine], for which the pIC50 was not below 4.70.
Turning to `CN(c1cc(-c2ccccc2)c(=O)n(C)c1)c1ccnc(NC2CCN(C(=O)OC(C)(C)C)CC2)n1` [Example 173, tert-Butyl 4-(4-(Methyl(1-methyl-6-oxo-5-phenyl-1,6-dihydropyridin-3-yl)amino)pyrimidin-2-ylamino)piperidine-1-carboxylate], the pIC50 was not below 4.70.
With `CN(c1cc(-c2ccccc2)c(=O)n(C)c1)c1ccnc(NC2CCNCC2)n1` [Example 174, 1-Methyl-5-(methyl(2-(piperidin-4-ylamino)pyrimidin-4-yl)amino)-3-phenylpyridin-2(1H)-one] the figure was not below 4.70; with `CC(=O)N1CCC(Nc2nccc(N(C)c3cc(-c4ccccc4)c(=O)n(C)c3)n2)CC1` [Example 175, 5-((2-(1-Acetylpiperidin-4-ylamino)pyrimidin-4-yl)(methyl)amino)-1-methyl-3-phenylpyridin-2(1H)-one], not below 4.70.
The value for `CN(c1cc(-c2ccccc2)c(=O)n(C)c1)c1ccnc(NCCc2ccccc2)n1` [Example 176, 1-Methyl-5-(methyl(2-(phenethylamino)pyrimidin-4-yl)amino)-3-phenylpyridin-2(1H)-one] was not below 4.70.
With `CC(Cc1ccc(F)c(CO)c1)Nc1nccc(N(C)c2cc(-c3ccccc3)c(=O)n(C)c2)n1` (stereo not shown) [Example 177, 5-((2-(1-(4-Fluoro-3-(hydroxymethyl)phenyl)propan-2-ylamino)pyrimidin-4-yl)(methyl)amino)-1-methyl-3-phenylpyridin-2(1 H)-one] the figure was not below 4.70.
In the case of `C[C@@H](Cc1cccc(CN)c1)Nc1nccc(N(C)c2cc(-c3ccccc3)c(=O)n(C)c2)n1` [Example 178, (S)-5-((2-(1-(3-(Aminomethyl)phenyl)propan-2-ylamino)pyrimidin-4-yl)(methyl)-amino)-1-methyl-3-phenylpyridin-2(1H)-one], the pIC50 is not below 4.70.
With `C[C@@H](Cc1cccc([C@@H](C)N)c1)Nc1nccc(N(C)c2cc(-c3ccccc3)c(=O)n(C)c2)n1` [Example 179, 5-((2-((S)-1-(3-((R)-1-Aminoethyl)phenyl)propan-2-ylamino)pyrimidin-4-yl)(methyl)amino)-1-methyl-3-phenylpyridin-2(1H)-one] the figure was not below 4.70.
With `CC(Cc1cccc(CN)c1)Nc1nccc(N(C)c2cc(N)nc(-c3ccccc3)n2)n1` (stereo not shown) [Example 181, N^4-(2-(1-(3-(Aminomethyl)phenyl)propan-2-ylamino)pyrimidine-4-yl)-N^4-methyl-2-phenylpyrimidine-4,6-diamine] the figure was not below 4.70.
With `Clc1nnc(Nc2ccnc(N3CCCC3Cc3ccccc3)n2)cc1-c1ccccc1` (stereo not shown) [Example 182, N-(2-(2-Benzylpyrrolidin-1-yl)pyrimidin-4-yl)-6-chloro-5-phenylpyridazin-3-amine] the figure was not below 4.70; with `Clc1ccccc1CCNc1nccc(Nc2cc(-c3ccccc3)c(Cl)nn2)n1` [Example 183, N^2-(2-Chlorophenethyl)-N4-(6-chloro-5-phenylpyridazin-3-yl)pyrimidine-2,4-di-amine], not below 4.70.
Turning to `CN(c1ccnc(NCCc2ccccc2)n1)c1nccc(-c2ccccc2)n1` [Example 184, N^4-Methyl-N^2-phenethyl-N^4-(4-phenylpyrimidin-2-yl)pyrimidine-2,4-diamine], the pIC50 was not below 4.70.
With `CN(c1ccnc(NCCc2ccccc2Cl)n1)c1nccc(-c2ccccc2)n1` [Example 185, N^2-(2-Chlorophenethyl)-N^4-methyl-N^4-(4-phenylpyrimidin-2-yl)pyrimidine-2,4-diamine] the figure was not below 4.70.
With `CN(c1ccnc(NCCc2ccccc2)n1)c1nccc(C(C)(C)C)n1` [Example 186, N^4-(4-tert-Butylpyrimidin-2-yl)-N^4-methyl-N^2-phenethylpyrimidine-2,4-diamine] the figure was not below 4.70; with `CN(c1ccnc(-c2ccccc2)n1)c1ccnc(N2CC[C@H]2Cc2ccccc2)n1` [N-methyl-2-phenyl-N-(2-((2R)-2-(phenylmethyl)-1-azetidinyl)-4-pyrimidinyl)-4-pyrimidinamine], not below 4.70.
The value for `Cc1nccn1-c1nccc(N(C)c2ccnc(-c3ccccc3)n2)n1` [N-methyl-N-(2-(2-methyl-1H-imidazol-1-yl)pyrimidin-4-yl)-2-phenylpyrimidin-4-amine] was not below 4.70.
As to `CN(c1cnc(OCc2ccccc2)c(-c2ccccc2)c1)c1ccnc(NC2CCNCC2)n1` [N^4-(6-(Benzyloxy)-5-phenylpyridin-3-yl)-N^4-methyl-N^2-(piperidin-4-yl)-pyrimidine-2,4-diamine], the pIC50 is not below 4.70.
